How the values were obtained:
ARPE-19 cells [1] = assay: Lysosomal pH (pHL) with LysoSensor Yellow/Blue, high through-put screen; assay type: cell-based, human; settings: for effect on pHL of cells treated with tamoxifen: tamoxifen concentration not stated, A68930 and A77636 at 1 μM; for effect on pHL, agent alone: cells without other alkalinizing agent, NH4Cl 10 mM, BAF 200 nM, CHQ 20 μM, CFTR-172 10 μM, LDL 10 μg/ml, others not given
Description: Lysosensor Yellow/Blue co-localized with the Lysotracker Red dye in small vesicles, with a distribution consistent with lysosomal origin. Measurements of pHL were performed using a high throughput screening (HTS) protocol to maximize output and minimize variation using ARPE-19 cells in 96 well plates. […] Loading for 5 min. at 23° C. with 5 μM lysosensor, followed by 15 min. for internalization, produced stable and reproducible results.
The ratio was converted to pH by calibrating with KCl buffered to pH 4.0-6.0 in the presence of monensin and nigericin. Calibration indicated a baseline pH of 4.4 to 4.5, supporting lysosomal localization. […] NH4Cl decreased the ratios slightly at 380 nm. Nevertheless, absent the addition of the dye, none of these compounds, or any others, altered the fluorescent signal at 340 or 380 nm, showing a specificity of the measured change to pHL. […] This quantification is necessary to predict the potential effectiveness of acidifying drugs to restore lysosomal enzyme activity.
Extensive trials determined that the optimal response is obtained with 5 minute dye loading and 15 minute post-incubation. […] All reagents were from Sigma Chemical Corp. unless otherwise indicated.
In general, each condition below used 3-12 independent wells per plate, in 3-6 separate plates. As levels from individual plates varied, data was normalized to the mean pHL for control wells from each plate. Fluorescent ratios were converted to pH following calibration performed on each plate as described. Incubation with Lysosensor Yellow/Blue was kept constant and all measurements were performed 15 min after removal of dye from the bath to ensure continuity. Significance was determined with a one-way ANOVA and Tukey post test. Drugs were always tested on control cells to ensure modification of healthy RPE cells was minimal, and cells were not exposed to dye to make sure effects were specific. All background was subtracted from the fluorescence excited at 340 and 380 nm independently before calculation of the ratio.

ARPE-19 cells [2] = assay: Toxicity of A2E to cultured cells; assay type: cell-based, human; settings: A2E 100 nM, over a period of 1-2 weeks
Description: Holz and colleagues previously reported A2E responses, but the increase in pHL required four weeks of feeding the cells with A2E (14 nM) every 3-4 days, and the A2E was complexed to low-density lipoprotein (LDL; 10 μg/ml) (Holz et al., supra, 1999). […] To reduce the lengthy time course, higher concentrations of A2E (100 nM) were tested, but the cells were killed over a period of 1-2 weeks. Therefore, alternative methods were needed to permit timely testing of the effect of pH on lysosomal activity in the RPE cells.

[3] = test system: RPE cells from ABCA4−/− mice; assay: Lysosomal pH in fresh RPE cells from ABCA4-/- mice, drug added to the cells; assay type: cell-based, mouse; settings: RPE cells from 11-month-old ABCA4−/− mice
Text: Measurement of pHL from Isolated Mouse Cells: Based on protocols that are used extensively to measure Ca2^+ from retinal ganglion cells (Zhang et al. Invest. Ophthalmol. Vis. Sci. 46:2183-2191 (2005)), cells were fixed on coverslips and mounted on Nikon Eclipse inverted microscope, visualized with a x40 oil-immersion fluorescence objective, and perfused with control solution. The field was alternatively excited at 340 nm and 380 nm, and fluorescence >515 emitted from the region of interest surrounding individual cells is measured with a CCD camera and Imagemaster software (Photon Technologies International, Inc). After baseline levels were recorded for 3-5 minutes in the absence of dye, solution was replaced with 5 μM Lysosensor Yellow/Blue dye for 5 minutes before washing for an additional 15 minutes. The ratios in the control solutions were recorded, and then acidifying drugs were added. Ratios were converted to pH with monensin/nigericin as above.
As a result, lysosomal pH increases early, and is measured in ABCA4^−/− mice at 6, 12 and 18 weeks from RPE cells within 5 hours of sacrifice. […] However, the signal/noise from measurements of isolated cells with the plate reader is not acceptable. Instead, this signal is measured using the microscope-based imaging system, previously used successfully to measure Ca2^+ from freshly isolated retinal ganglion cells (Zhang et al., supra, 2005). […]

[4] = test system: primate model of the disease; settings: delivered orally; cited from earlier work
ARPE-19 cells [5] = assay: FACS analysis of autofluorescence (excited at 488 nm); assay type: cell-based, human; settings: photoreceptor outer segments plus 10 μM chloroquine, 7 days
Text: To maintain a balance between the synthesis, degradation, and subsequent recycling of cellular products there are a variety of autophagic responses, but all involve degradation of intracellular components via the lysosome. Typically, autophagy involves the formation of a membrane around a targeted region of the cell, separating the contents from the rest of the cytoplasm, and then the resultant vesicle fuses with a lysosome and the contents are subsequently degraded.

other P2 receptors = settings: cited from earlier work
cAMP in the RPE = assay: Effect of ATP on cAMP in the RPE; assay type: cell-based
Description: P2Y11 Receptor: The initial investigation screened agonists that act at multiple P2 receptors for their effect on pHL using the high through-put assay. BzATP, ATP, ATPγS, ADPγS and 2 MeSATP and AR-C67085 were added at 10, 30, 100 and 300 μM, respectively, and relative actions were compared with published information for the human P2Y11 receptor (von Kugelgen et al, supra, 2000; Communi et al., supra, 1997; Communi et al., Br. J. Pharmacol. 128:1199-206 (1999)). ATP was added in the presence of ecto-ATPase/eNPP inhibitors βγmATP and ARL67156 (100 μM) since they prevent degradation of ATP in these cells. Receptor involvement was confirmed with antagonists suramin, reactive blue 2 and pyridoxal-phosphate-6-azophenyl-2′,4′-disulphonic acid (PPADS; all at 0.1, 1, 10 and 100 μM). Since the finding that ATP had the ability to elevate cAMP in the RPE was novel, the effect of ATP on cAMP was measured directly using the cAMP-Screen Direct Chemiluminescent Immunoassay System kit from Applied Biosystems using an HTS luminometer to measure […]. The role of cAMP was confirmed by inhibiting pKA with 100 μM Rp-8-Br-cAMPS.

[6] = NH4Cl 10 mM
Description: Isolation of Lysosomes: ARPE-19 cells were detached with 0.25% trypsin, centrifuged at 1000 rpm for 5 minutes, and resuspended in 0.25M sucrose with 5 mM ATP in 10 mM Tris buffer (pH 7.4 with HCl). After homogenization, samples were spun at 1000×g (10 min). The supernatant was centrifuged (20,000×g, 10 min) and the pellet was resuspended in a 0.25 M sucrose buffer with 8 mM CaCl2 in Tris-HCl buffer (pH 7.4) to lyse mitochondria (15 min, 35° C.). […] After isolation, lysosomes were diluted 1:10 in a 150 mM KCl solution in Tris-HCl (pH 7.4) and pelleted at 25,000×g. The pellet was then resuspended in 5 μM Lysosensor dye. Cells were washed 2× by centrifugation (25,000×g, 15 min), resuspended in test or control solutions including 5 mM MgATP, plated into a 96 well plate (50 μl/well) and the pH was measured as above.

ABCA4−/− mice [7] = assay: Oral P2Y12 inhibitor in ABCA4-/- mice, lysosomal pH of RPE cells; assay type: in vivo, mouse; settings: 20 month old mice, 12 ug/ml in the water for 19 days
Description: In this example the selected P2Y12 inhibitor was clopidogrel (commercially available as Plavix), but the invention need not be so limited, and other P2Y12 inhibitors, such as AR-C66096, may be used. The clopidogrel was given orally at 50 mg/kg and the pH measured from RPE cells that were removed 4 hrs later.

ABCA4−/− mice [8] = assay: Oral ticagrelor in ABCA4-/- mice, RPE autofluorescence; assay type: in vivo, mouse; settings: 26 month old mice, 12 ug/ml in the water for 4 days, excited with 406 nm laser
Text: Finally, as recorded in the photographic images of FIG. 12F, autofluorescence in untreated ABCA4−/− mice (upper, Con)) were compared with those treated with Brilinta (lower, Bri) in the water.

[9] = test system: Cathepsin-D activity in ARPE-19 cells; assay: Cathepsin-D activity monitored with a fluorescent reporter; assay type: cell-based, human; settings: addition of BzATP
Text: In FIG. 13C, it is shown that BzATP reduced lysosomal enzyme activity. […] Cathepsin D is the major lysosomal protease responsible for degrading photoreceptors in the RPE, and thus changes to cathepsin D activity reflect the ability of the lysosomes to successfully degrade (dispose of) phagocytosed outer segments. […] Consequently, by applying exogenous antagonists to the P2X7 and P2Y12 receptors (i.e., P2X7 receptor-antagonist, and/or P2Y12 receptor-antagonist), the resulting pH elevation by endogenously released ATP is inhibited or prevented, thereby enhancing degradation of the metabolic waste by the lysosomes, reducing autofluorescent lipofuscin accumulation, and thus reducing the onset or progression of AMD.

[10] = test system: LC3BII and p62 in ARPE-19 cells; assay: Western blot of autophagy markers; assay type: cell-based, human; settings: Western blot quantification
Text: While the RPE cells must degrade phagocytosed outer segments, they must also degrade and dispose of their own waste material through a process termed autophagy. The ability of P2X7 receptor stimulation to rapidly raise levels of autophagy markers LC3BII and p62 are consistent with the effects of raising lysosomal pH, for they imply that lysosomal alkalinization prevents the RPE cell from degrading material from autopagic vesicles containing p62 or tagged with LC3BII. (See, Kabeya, Y., et al., “LC3, a mammalian homolog of yeast Apg8p, is localized in autophagosome membranes after processing.” EMBO J., 22:[…] (2003); Moscat, J. and Diaz-Meco, M. T. (2009) “p62 at the Crossroads of Autophagy, Apoptosis, and Cancer,” Cell 137:1001-1004 (2009)).

Compound: CC(C=CC1=C(C)CCCC1(C)C)=CC=CC(C)=Cc1cc(C=CC=C(C)C=CC2=C(C)CCCC2(C)C)cc[n+]1CCO [A2E, N-retinylidene-N-retinylethanolamine]
- increase in pHL (ARPE-19 cells [1]; ARPE-19 cells, A2E (14 nM) fed for 4 weeks): 0.4 units
- cell killing (ARPE-19 cells [2]): killed

Compound: NC[C@@H]1O[C@H](c2ccccc2)Cc2c1ccc(O)c2O [A68930]
- effect on pHL of cells treated with tamoxifen (ARPE-19 cells [1]): decreased lysosomal pH
- effect on pHL (ratio 340 to 380 nm) [3]: decreased pHL

Compound: NC[C@@H]1O[C@H](C23CC4CC(CC(C4)C2)C3)Cc2c1ccc(O)c2O [A77636]
- effect on pHL of cells treated with tamoxifen (ARPE-19 cells [1]): decreased lysosomal pH
- effect on pHL (ratio 340 to 380 nm) [3]: decreased pHL
- Parkinsonian activity [4]: reduces Parkinsonian activity

Compound: Cl.Clc1cccc(-c2nnnn2Cc2cccnc2)c1Cl [A438079, 3-[[5-(2,3-Dichlorophenyl)-1H-tetrazol-1-yl]methyl]pyridine hydrochloride salt]
- effect on pHL rise by P2X7 agonist BzATP (ARPE-19 cells [1]; cells stimulated with BzATP): prevented this rise
- effect on autofluorescence enhanced by POS+CHQ (ARPE-19 cells [5]): reduced this enhanced autofluorescence
- activity at other P2 receptors (other P2 receptors): devoid of activity at other P2 receptors

Compound: Nc1ncnc2c1ncn2[C@@H]1O[C@H](COP(=O)(O)OP(=O)(O)OP(=O)(O)O)[C@@H](O)[C@H]1O [ATP]
- effect on lysosomal pH, conditions not stated (ARPE-19 cells [1]): acidify lysosomes
- effect on cAMP in the RPE (cAMP in the RPE): elevate cAMP

Compound: Cl.N [NH4Cl]
- effect on pHL, agent alone (ARPE-19 cells [1]): pH was elevated
- 340/380 ratio in isolated lysosomes [6]: increased the 340/380 ratio

Compound: CCCSc1nc(N[C@@H]2C[C@H]2c2ccc(F)c(F)c2)c2nnn([C@@H]3C[C@H](OCCO)[C@@H](O)[C@H]3O)c2n1 [ticagrelor]
- lysosomal pH of RPE cells (ratio of pH sensor) after drug in the water (ABCA4−/− mice [7]): reduced lysosomal pH of RPE cells
- autofluorescence in RPE cells (ABCA4−/− mice [8]): decreased autofluorescence

Compound: BzATP
- effect on pHL, agent alone (ARPE-19 cells [1]): elevation of the lysosomal pHL
- Cathepsin-D activity [9]: visibly decreased
- LC3BII level [10]: rapid increases
- p62 level [10]: rapid increases
